Target: Full length human recombinant HDAC11 (Homo sapiens (Human), UniProt Q96DB2)
Test: Enzymatic HDAC11 assay, electrophoretic mobility shift
Assay type: biochemical
Settings: substrate FAM-RHKK(tri-fluor-Ac)-NH2, read-out: HDAC11 IC50 Range
Protocol: The enzymatic HDAC11 assay was performed using electrophoretic mobility shift assay. Full length human recombinant HDAC11 protein was expressed in baculoviral system and purified by affinity chromatography. The enzymatic reactions were assembled in 384 well plates in a total volume of 25 μL in a reaction buffer composing: 100 mM HEPES, pH 7.5, 25 mM KCl, 0.1% bovine serum albumin, 0.01% Triton X-100, 1% DMSO (from compounds) 2 μM of the fluorescently labeled peptide substrate and enzyme. The enzyme was added at a final concentration of 10 nM. The peptide substrate FAM-RHKK(tri-fluor-Ac)-NH2 was used. The compounds were tested at 12 concentrations spaced by 3× dilution intervals. Negative control samples (0%-inhibition in the absence of inhibitor) and positive control samples (100%-inhibition) were assembled in replicates of four in each assay plate. The reactions were incubated at 25° C. and quenched by the addition of 45 μL of termination buffer (100 mM HEPES, pH 7.5, 0.01% Triton X-100, 0.05% SDS).
The terminated assay plates were analyzed on LabChip® 3000 microfluidic electrophoresis instrument (Perkin Elmer/Caliper Life Sciences). The fluorescence intensity of the electrophoretically separated de-acetylated product and substrate peptide was measured. Activity in each sample was determined as the product to sum ratio (PSR):P/(S+P), where P is the peak height of the product peptide and S is the peak height of the substrate peptide. Percent inhibition (Pinh) is determined using the following equation: Pinh=(PSR0%−PSRinh)/(PSR0%−PSR100%)*100,
where PSRinh is the product sum ratio in the presence of inhibitor, PSR0% is the average product sum ration in the absence of inhibitor and PSR100% is the average product sum ratio in 100%-inhibition control samples. The IC50 values of inhibitors were determined by fitting the percent inhibition curves with 4 parameter dose-response model using XLfit 4 software.

Chain of Full length human recombinant HDAC11 (Q96DB2 whole entry): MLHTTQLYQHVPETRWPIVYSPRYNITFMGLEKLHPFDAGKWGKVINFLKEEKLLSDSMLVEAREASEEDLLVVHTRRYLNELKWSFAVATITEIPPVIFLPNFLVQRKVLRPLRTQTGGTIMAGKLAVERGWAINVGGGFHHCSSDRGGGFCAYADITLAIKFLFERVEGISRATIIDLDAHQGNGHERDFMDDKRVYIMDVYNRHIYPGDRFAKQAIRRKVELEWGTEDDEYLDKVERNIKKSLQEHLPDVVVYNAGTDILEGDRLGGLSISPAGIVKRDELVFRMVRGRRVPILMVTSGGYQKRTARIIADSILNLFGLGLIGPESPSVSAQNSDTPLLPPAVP

Cc1cccc(CN2CCC3(Cc4cccc(C(=O)NO)c4C3)C2=O)c1 (stereo not drawn) [II-17, N-hydroxy-1′-(3-methylbenzyl)-2′-oxo-1,3-dihydrospiro[indene-2,3′-pyrrolidine]-4-carboxamide] gave an IC50 of 500 to 1000 nM.

Molecule O=C(NO)c1cccc2c1CC1(CCN(CCN3CCOCC3)C1=O)C2 (stereo not drawn) [II-52, N-hydroxy-1′-(2-morpholinoethyl)-2′-oxo-1,3-dihydrospiro[indene-2,3′-pyrrolidine]-4-carboxamide] has an IC50 greater than 1000 nM.

Molecule O=C(NO)c1cccc2c1CC1(CCN(Cc3ccccc3)CC1)C2 [II-64, 1′-benzyl-N-hydroxy-1,3-dihydrospiro[indene-2,4′-piperidine]-4-carboxamide] has an IC50 greater than 1000 nM.

O=C(NO)c1cccc2c1CC1(CCN(Cc3ccccc3Cl)C1=O)C2 (stereo not drawn) [II-25, 1′-(2-chlorobenzyl)-N-hydroxy-2′-oxo-1,3-dihydrospiro[indene-2,3′-pyrrolidine]-4-carboxamide] was tested, and the IC50 was greater than 1000 nM.

O=C(NO)c1cccc2c1CC1(CCN(Cc3cc(Cl)ccc3Cl)C1=O)C2 (stereo not drawn) [II-45, 1′-(2,5-dichlorobenzyl)-N-hydroxy-2′-oxo-1,3-dihydrospiro[indene-2,3′-pyrrolidine]-4-carboxamide] gave an IC50 of 500 to 1000 nM.

O=C(NO)c1cccc2c1CCC1(CCN(c3ccc(F)cc3)CC1)O2 [II-93, 1′-(4-fluorophenyl)-N-hydroxyspiro[chromane-2,4′-piperidine]-5-carboxamide] showed an IC50 greater than 1000 nM.

O=C(NO)c1cccc2c1CC1(CCN(C3CC3)C1)C2 (stereo not drawn) [II-57, 1′-cyclopropyl-N-hydroxy-1,3-dihydrospiro[indene-2,3′-pyrrolidine]-4-carboxamide] showed an IC50 greater than 1000 nM.

In the case of O=C(NO)c1cccc2c1OC1(CC2)CCN(C(=O)Cc2ccccc2)CC1 [II-79, N-hydroxy-1′-(2-phenylacetyl)spiro[chromane-2,4′-piperidine]-8-carboxamide], the IC50 is reported as greater than 1000 nM.

O=C(NO)c1cccc2c1CCC1(CCN(c3ccccc3C(F)(F)F)C1=O)C2 (stereo not drawn) [II-90, N-hydroxy-2′-oxo-1′-(2-(trifluoromethyl)phenyl)-3,4-dihydro-1H-spiro[naphthalene-2,3′-pyrrolidine]-5-carboxamide] was tested, and the IC50 was greater than 1000 nM.

Work on O=C(NO)c1cccc2c1CC1(CCN(Cc3ccc(C(F)(F)F)nc3)C1=O)C2 (stereo not drawn) [II-48, N-hydroxy-2′-oxo-1′-((6-(trifluoromethyl)pyridin-3-yl)methyl)-1,3-dihydrospiro[indene-2,3′-pyrrolidine]-4-carboxamide] yielded an IC50 greater than 1000 nM.

Work on Cc1noc(C)c1CN1CCC2(Cc3cccc(C(=O)NO)c3C2)C1=O (stereo not drawn) [II-50, 1′-((3,5-dimethylisoxazol-4-yl)methyl)-N-hydroxy-2′-oxo-1,3-dihydrospiro[indene-2,3′-pyrrolidine]-4-carboxamide] yielded an IC50 greater than 1000 nM.

Work on O=C(NO)c1cccc2c1CC1(CCN(Cc3ccccc3C(F)(F)F)C1=O)C2 (stereo not drawn) [II-29, N-hydroxy-2′-oxo-1′-(2-(trifluoromethyl)benzyl)-1,3-dihydrospiro[indene-2,3′-pyrrolidine]-4-carboxamide] yielded an IC50 of 500 to 1000 nM.

CS(=O)(=O)c1ccc(CN2CCC3(Cc4cccc(C(=O)NO)c4C3)C2=O)cc1 (stereo not drawn) [II-8, N-hydroxy-1′-(4-(methylsulfonyl)benzyl)-2′-oxo-1,3-dihydrospiro[indene-2,3′-pyrrolidine]-4-carboxamide] was tested, and the IC50 was greater than 1000 nM.

O=C(NO)c1cccc2c1CC1(CCN(Cc3cc(F)cc(F)c3)C1=O)C2 (stereo not drawn) [II-28, 1′-(3,5-difluorobenzyl)-N-hydroxy-2′-oxo-1,3-dihydrospiro[indene-2,3′-pyrrolidine]-4-carboxamide] showed an IC50 greater than 1000 nM.

Molecule CC(=O)N1CCC2(CC1)Cc1cccc(C(=O)NO)c1C2 [II-60, 1′-acetyl-N-hydroxy-1,3-dihydrospiro[indene-2,4′-piperidine]-4-carboxamide] has an IC50 greater than 1000 nM.

Molecule O=C(NO)c1cccc2c1CCC1(CCN(Cc3ccc(Cl)cc3)C1=O)C2 (stereo not drawn) [II-87, 1′-(4-chlorobenzyl)-N-hydroxy-2′-oxo-3,4-dihydro-1H-spiro[naphthalene-2,3′-pyrrolidine]-5-carboxamide] has an IC50 greater than 1000 nM.

With O=C(NO)c1cccc2c1CC1(CCN(Cc3cn(-c4ccccc4)nn3)C1=O)C2 (stereo not drawn) [II-53] the IC50 was greater than 1000 nM.

With O=C(NO)c1cccc2c1CC1(CC2)CCN(Cc2ccc(Cl)c(C(F)(F)F)c2)C1=O (stereo not drawn) [II-67, 1′-(4-chloro-3-(trifluoromethyl)benzyl)-N-hydroxy-2′-oxo-3,4-dihydro-1H-spiro[naphthalene-2,3′-pyrrolidine]-8-carboxamide] the IC50 was less than 500 nM.

CC(=O)N1CCC2(CCc3c(cccc3C(=O)NO)O2)CC1 [II-91, 1′-acetyl-N-hydroxyspiro[chromane-2,4′-piperidine]-5-carboxamide] was tested, and the IC50 was greater than 1000 nM.

Work on Cc1ccc(N2CCC3(CCc4cccc(C(=O)NO)c4O3)CC2)cc1F [II-83, 1′-(3-fluoro-4-methylphenyl)-N-hydroxyspiro[chromane-2,4′-piperidine]-8-carboxamide] yielded an IC50 greater than 1000 nM.

Work on CN(C)C(=O)N1CCC2(CCc3cccc(C(=O)NO)c3O2)CC1 [II-74, N8-hydroxy-N1′,N1′-dimethylspiro[chromane-2,4′-piperidine]-1′,8-dicarboxamide] yielded an IC50 greater than 1000 nM.

For O=C(NO)c1cccc2c1OC1(CC2)CCN(C(=O)C2(c3cccc(C(F)(F)F)c3)CC2)CC1 [II-78, N-hydroxy-1′-(1-(3-(trifluoromethyl)phenyl)cyclopropane-1-carbonyl)spiro[chromane-2,4′-piperidine]-8-carboxamide], the IC50 was less than 500 nM.

Work on O=C(NO)c1cccc2c1CC1(CCN(c3cccc(C(F)(F)F)c3)C1=O)C2 (stereo not drawn) [II-12, N-hydroxy-2′-oxo-1′-(3-(trifluoromethyl)phenyl)-1,3-dihydrospiro[indene-2,3′-pyrrolidine]-4-carboxamide] yielded an IC50 of 500 to 1000 nM.

For O=C(NO)c1cccc2c1CC1(CCN(Cc3ccc(Cl)cc3)C1=O)C2 (stereo not drawn) [II-1, 1′-(4-chlorobenzyl)-N-hydroxy-2′-oxo-1,3-dihydrospiro[indene-2,3′-pyrrolidine]-4-carboxamide], the IC50 was less than 500 nM.

O=C(NO)c1cccc2c1CC1(CCN(Cc3ccc(Cl)cc3)CC1)C2 [II-62, 1′-(4-chlorobenzyl)-N-hydroxy-1,3-dihydrospiro[indene-2,4′-piperidine]-4-carboxamide] gave an IC50 greater than 1000 nM.

With O=C(NO)c1cccc2c1CC1(CCN(Cc3ccccc3)CC1)C2O (stereo not drawn) [II-66, 1′-benzyl-N,1-dihydroxy-1,3-dihydrospiro[indene-2,4′-piperidine]-4-carboxamide] the IC50 was greater than 1000 nM.

CC1(C(=O)N2CCC3(CCc4cccc(C(=O)NO)c4O3)CC2)CCOCC1 [II-77, N-hydroxy-1′-(4-methyltetrahydro-2H-pyran-4-carbonyl)spiro[chromane-2,4′-piperidine]-8-carboxamide] was tested, and the IC50 was greater than 1000 nM.

Work on O=C(NO)c1cccc2c1CC1(CCN(Cc3ccc(Cl)c(Cl)c3)C1=O)C2 (stereo not drawn) [II-38, 1′-(3,4-dichlorobenzyl)-N-hydroxy-2′-oxo-1,3-dihydrospiro[indene-2,3′-pyrrolidine]-4-carboxamide] yielded an IC50 of less than 500 nM.

In the case of O=C(NO)c1cccc2c1CC1(CC2)CCN(Cc2ccc(C(F)(F)F)cc2)C1=O (stereo not drawn) [II-70, N-hydroxy-2′-oxo-1′-(4-(trifluoromethyl)benzyl)-3,4-dihydro-1H-spiro[naphthalene-2,3′-pyrrolidine]-8-carboxamide], the IC50 is reported as 500 to 1000 nM.

For O=C(NO)c1cccc2c1CC1(CCN(Cc3ccc(-c4ccccc4)cc3)C1=O)C2 (stereo not drawn) [II-16, 1′-([1,1′-biphenyl]-4-ylmethyl)-N-hydroxy-2′-oxo-1,3-dihydrospiro[indene-2,3′-pyrrolidine]-4-carboxamide], the IC50 was less than 500 nM.

O=C(NO)c1cccc2c1CC1(CCN(CCCc3ccccc3)C1=O)C2 (stereo not drawn) [II-15, N-hydroxy-2′-oxo-1′-(3-phenylpropyl)-1,3-dihydrospiro[indene-2,3′-pyrrolidine]-4-carboxamide] was tested, and the IC50 was greater than 1000 nM.

Molecule O=C(NO)c1cccc2c1CC1(CCN(Cc3ccc(F)cc3F)C1=O)C2 (stereo not drawn) [II-35, 1′-(2,4-difluorobenzyl)-N-hydroxy-2′-oxo-1,3-dihydrospiro[indene-2,3′-pyrrolidine]-4-carboxamide] has an IC50 greater than 1000 nM.

Molecule O=C(NO)c1cccc2c1CC1(CCN(Cc3cccnc3)C1=O)C2 (stereo not drawn) [II-24, N-hydroxy-2′-oxo-1 ‘-(pyridin-3-ylmethyl)-1,3-dihydrospiro[indene-2,3’-pyrrolidine]-4-carboxamide] has an IC50 greater than 1000 nM.

O=C(NO)c1cccc2c1CC1(CCN(Cc3cccc(OC(F)(F)F)c3)C1=O)C2 (stereo not drawn) [II-42, N-hydroxy-2′-oxo-1′-(3-(trifluoromethoxy)benzyl)-1,3-dihydrospiro[indene-2,3′-pyrrolidine]-4-carboxamide] was tested, and the IC50 was less than 500 nM.

With O=C(NO)c1cccc2c1CCC1(CCN(Cc3ccc(C(F)(F)F)cc3)C1=O)C2 (stereo not drawn) [II-85, N-hydroxy-2′-oxo-1′-(4-(trifluoromethyl)benzyl)-3,4-dihydro-1H-spiro[naphthalene-2,3′-pyrrolidine]-5-carboxamide] the IC50 was less than 500 nM.

Molecule O=C(NO)c1cccc2c1CC1(CCN(CC3CCCCC3)C1=O)C2 (stereo not drawn) [II-44, 1′-(cyclohexylmethyl)-N-hydroxy-2′-oxo-1,3-dihydrospiro[indene-2,3′-pyrrolidine]-4-carboxamide] has an IC50 greater than 1000 nM.

From patent US10508088B2, “Methods using HDAC11 inhibitors” (FORMA Therapeutics, Inc., priority 2016, dated 2019)
